Patent US20050171171A1, “Amide derivatives as FLT-3 modulators” (Ambit Biosciences Corporation, priority 2003, published 2005)

Assays:
[1] = target: T1, FLT3(DKIN) (Homo sapiens, UniProt P36888); experiment: Binding Assay: FLT3(DKIN), phage-displayed kinase competition binding (Kd)
T1 construct: 3(DKIN); made in house
T1 sequence (P36888 610-943 limits assumed): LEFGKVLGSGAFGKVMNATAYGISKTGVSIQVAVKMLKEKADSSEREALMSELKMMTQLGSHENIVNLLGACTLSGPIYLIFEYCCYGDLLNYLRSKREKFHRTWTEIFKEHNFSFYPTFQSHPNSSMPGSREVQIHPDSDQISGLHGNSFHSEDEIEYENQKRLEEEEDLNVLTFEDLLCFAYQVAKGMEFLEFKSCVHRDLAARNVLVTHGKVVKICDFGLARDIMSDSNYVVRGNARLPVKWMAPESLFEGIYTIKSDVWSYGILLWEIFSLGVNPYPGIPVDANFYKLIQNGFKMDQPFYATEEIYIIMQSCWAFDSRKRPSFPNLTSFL
From the text: (§1) Binding Constant (Kd) Measurements for Small-Molecule-Kinase Interactions
(§2) The term “ND” represents non-determined values.

[2] = tested on: MV4,11 cells; experiment: Cell Assay: CS0001, FLT3 assay using MV4,11 cells (MTS proliferation); type: cell-based; conditions: Homo sapiens
Procedure: The ability of FLT3 kinase inhibitors to inhibit cellular proliferation was also examined. MV4:11 was a cell line derived from a patient with acute myelogenous leukemia. It expressed a mutant FLT3 protein that was constitutively active. […] Inhibition of FLT3 kinase activity prevented proliferation of these cells, and thus the MV4:11 cell line can be used a model for cellular activity of small molecule inhibitors of FLT3.
FLT3 Assay Using MV4,11 Cells
MV4,11 cells were grown in an incubator @ 37° C. in 5% CO2 in Medium 2 (RPM 10% FBS, 4 mM glutamine, Penn/Strep). The cells were counted daily and the cell density was kept between 1e5 and 8e5 cells/ml.
Day One: Enough cells were harvested for experiments to be conducted in 50 ml conical tubes. The harvested cells were spun at 500 g for 5 min at 4° C., the supernatant was then aspirated and the cells were resuspended in the starting volume of 1× PBS. The cells were again spun at 500 g for 5 min at 4° C. and the supernatant again aspirated. The cells were then resuspended in medium 3 (DMEM w/glut, 10% FBS, Penn/Strep) to a density of 4e5 cells/ml and incubated @ 37° C. in 5% CO2 O/N.
Day Two: The cells were counted and enough medium 3 was added to decrease density to 2e5 cells/ml. 50 ul (10,000 cells) was aliquoted into each well of a 96 well optical plate using multichannel pipetman. The compound plate was then set up by aliquoting 3 μl of negative control (DMSO) into column 1 of a 96 well 300 ul polypropylene plate, aliquoting 3 μl of positive control (10 mM AB20121) into column 12 of plate, and aliquoting 3 μl of appropriate compounds from serial dilutions into columns 2-11. To each well, 150 μl of Medium 3 was added and 50 μl of compound/medium mixture from compound plate into rows of optical plate in duplicate. The cells were then incubated @ 37° C. in 5% CO2 for 3 days.
Day Five: MTS was thawed in a H2O bath. 20 μl of MTS was added to each well of optical plate and the cells were incubated @ 37° C. in 5% CO2 for 2 hours. The plate was then placed on a plate shaker for 30 seconds on high speed.

[3] = target: T2, FLT3(JMminus) (Homo sapiens, UniProt P36888); experiment: Binding Assay: FLT3(JMminus), phage-displayed kinase competition binding (Kd)
T2 construct: "FLT 3(JMminus)"; fused on or other part: Fused to a T7 bacteriophage particle (phage display)
T2 sequence (P36888 610-943 limits assumed): T1 sequence (P36888 610-943 limits assumed)
From the text: as §1, §2

[4] = Cell Assay: CS0002; type: cell-based

Row | Structure (SMILES) | Kd [1] [nM] | IC50 [2] [nM] | Kd [3] [nM] | IC50 [4] [nM]
1 | COc1ccc(CC(=O)Nc2cc(C(C)(C)C)no2)cc1 | < 100 |  |  | 
2 | CC(C)(C)c1cc(NC(=O)Cc2ccc(OCc3ccccc3)cc2)on1 | < 100 | < 100 |  | 
3 | CC(C)(C)c1cc(NC(=O)Cc2ccc(F)cc2)on1 | < 100 |  |  | 
4 | CC(C)(C)c1cc(NC(=O)Cc2ccc(Cl)cc2)on1 | < 100 |  |  | 
5 | CC(C)(C)c1cc(NC(=O)Cc2ccc(Br)cc2)on1 | < 100 |  |  | 
6 | COc1ccc(SC(=O)Nc2cc(C(C)(C)C)on2)cc1 | 1000 to 10000 |  |  | 
7 | CC(C)(C)c1cc(NC(=O)Sc2ccc(Cl)cc2)no1 | 1000 to 10000 |  |  | 
8 | COc1ccc(CC(=O)Nc2cc(C3CC3)nn2-c2ccccc2)cc1 | 1000 to 10000 |  |  | 
9 | O=C(Cc1ccc(OCc2ccccc2)cc1)Nc1cc(C2CC2)nn1-c1ccccc1 | 100 to 1000 |  |  | 
10 | CC(C)(C)c1cc(NC(=O)Cc2ccc(O)cc2)no1 | 100 to 1000 |  |  | 
11 | Cc1csc(NC(=O)Cc2ccc(OCc3ccccc3)cc2)n1 | > 10000 |  |  | 
12 | Cc1cnc(NC(=O)Cc2ccc(OCc3ccccc3)cc2)s1 | > 10000 |  |  | 
13 | O=C(Cc1ccc(OCc2ccccc2)cc1)Nc1nc(-c2ccc(Cl)cc2)cs1 | > 10000 |  |  | 
14 | O=C(Cc1ccc(OCc2ccccc2)cc1)Nc1nc2ccccc2s1 | > 10000 |  |  | 
15 | COc1cccc2sc(NC(=O)Cc3ccc(OCc4ccccc4)cc3)nc12 | > 10000 |  |  | 
16 | O=C(Cc1ccc(OCc2ccccc2)cc1)Nc1nc2ccc(F)cc2s1 | > 10000 |  |  | 

Row | Structure (SMILES) | Kd [1] [nM] | IC50 [2] [nM] | Kd [3] [nM] | IC50 [4] [nM]
17 | O=C(Cc1ccc(OCc2ccccc2)cc1)Nc1nc2cc(Cl)ccc2o1 | 100 to 1000 |  |  | 
18 | CC(C)(C)c1cc(C(=O)Nc2ccc(OCC3CC3)cc2)no1 | > 10000 | 1000 to 10000 |  | 
19 | CC(C)(C)c1cc(C(=O)Nc2ccc(OCc3ccccc3F)cc2)no1 | 1000 to 10000 | 1000 to 10000 |  | 
20 | Cc1noc(-c2ccc(-c3noc(-c4cc(C(C)(C)C)on4)n3)cc2)n1 | > 10000 | > 10000 |  | 
21 | CC(C)(C)c1cc(-c2nc(-c3ccc(Cl)cc3)no2)no1 | > 10000 | > 10000 |  | 
22 | CC(C)(C)c1cc(-c2nc(-c3ccc(O)cc3)no2)no1 | > 10000 | 1000 to 10000 |  | 
23 | CC(C)(C)c1cc(-c2nc(-c3ccc(OCc4ccccc4F)cc3)no2)no1 | > 10000 | 100 to 1000 |  | 
24 | Cc1ccc(NC(=O)c2ccc(-c3noc(-c4cc(C(C)(C)C)on4)n3)cc2)cc1 | > 10000 | 100 to 1000 |  | 
25 | Cc1cc(C)n(C(=O)Nc2ccc(Cl)cc2)n1 | > 10000 | > 10000 |  | 
26 | CC(C)(C)c1cc(/C=N/C(=N\O)c2ccc(Cl)cc2)no1 | 1000 to 10000 | 1000 to 10000 |  | 
27 | Cc1nn(C)c(Cl)c1C(=O)Nc1ccc(CC(=O)Nc2cc(C(C)(C)C)on2)cc1 |  | 100 to 1000 | < 100 | > 10000
28 | CSc1ncc(Br)c(C(=O)Nc2ccc(CC(=O)Nc3cc(C(C)(C)C)on3)cc2)n1 |  | < 100 | < 100 | > 10000
29 | CC(C)(C)c1cc(NC(=O)Cc2ccc(NC(=O)c3ccc4cnccc4n3)cc2)no1 |  | < 100 | < 100 | > 10000
30 | Cn1cc(C(=O)Nc2ccc(CC(=O)Nc3cc(C(C)(C)C)on3)cc2)c2ccccc21 |  | < 100 | < 100 | > 10000
31 | CC(C)(C)c1cc(NC(=O)Cc2ccc(NC(=O)c3cccc4cccnc34)cc2)no1 |  | 1000 to 10000 | 100 to 1000 | > 10000
32 | CC(C)(C)c1cc(NC(=O)Cc2ccc(NC(=O)c3cnc4ccccc4c3)cc2)no1 |  | < 100 | < 100 | > 10000
